{
  "source": "paper PMC10671050",
  "about": "“Alkyl Derivatives of Perylene Photosensitizing Antivirals: Towards Understanding the Influence of Lipophilicity” (International Journal of Molecular Sciences, 2023)",
  "key": {"[1]": {"test_system": "HSV-1, strain MacIntyre", "experiment": "HSV-1 titer reduction assay in Vero cells", "settings": "10 µM, 48 h; for viral replication and spread in HSV-1-infected Vero cell culture: inside cell culture (Figure 6C); for anti-HSV-1 activity in Vero cells: viral titer in medium supernatant"}, "[2]": {"test_system": "VSV Indiana strain", "experiment": "microbe, parasite or virus in culture", "type": "cell-based, vesicular stomatitis Indiana virus", "settings": "Vesicular stomatitis virus, HEK-293T, 1 h, read-out: VSV, EC50"}, "[3]": {"type": "physicochemical", "settings": "methanol, DPBF trap, 450–470 nm, relative to riboflavin"}, "[4]": {"test_system": "HSV-1, strain MacIntyre", "experiment": "Photodynamic inactivation of HSV-1 (virus treated with compound, plaque assay)", "type": "cell-based, herpes simplex virus-1", "settings": "for EC50: Human alphaherpesvirus 1, 10 min, HSV-1 10^4 PFU/mL, plaque assay"}, "[5]": {"test_system": "HSV-1 envelope", "experiment": "HSV-1 envelope interaction studies (intercalation assay)", "type": "cell-based, herpes simplex virus-1", "settings": "2 and 10 µM, pre-incubation at 37 °C, Vero cells"}, "[6]": {"test_system": "HSV-1 virus-cell fusion", "experiment": "HSV-1-based fusion assay", "type": "cell-based, herpes simplex virus-1", "settings": "for plaque numbers in fusion assay: Vero cells; for plaque size in fusion assay: Vero monolayers in presence of compound", "experimental": "In the fusion assay, HSV-1 was attached to Vero cells at 4 °C, but virus–cell fusion was blocked due to the low temperature.\nHSV-1 (100 PFU/mL) was then added to the cells and incubated at 4 °C for 2 h. After incubation, the cell monolayers were washed three times with ice-cold PBS to remove un-adsorbed virus, and fresh ice-cold medium containing the tested compounds (0, 0.08, 2, and 10 µM) was added to the cells and incubated for 2 h at 4 °C. After another 2 h incubation at 37 °C, the medium was aspirated, the cells were washed with PBS and fresh medium containing 1.5% carboxymethylcellulose was added to the cells."}, "[7]": {"experiment": "Solubilization in 15% DMSO in water", "settings": "for solubility: aqueous with cosolvent or surfactant or cyclodextrin, kinetic from dmso stock", "quoted_text": "To perform this measurement, the compound was dissolved in DMSO and then diluted with water to achieve a solution containing 15% DMSO. The solution was centrifuged, and the resulting supernatant was lyophilized (evaporated) to dryness. Subsequently, the dry residue was dissolved in DMSO, and the concentration of the compound dissolved in DMSO was determined spectrophotometrically.\nThe mixtures were then centrifuged at 20,000 rcf for 5 min; 500 μL of the supernatant were collected and lyophilized; 76 µL of DMSO were added to the dry residue, and the absorbance was measured at the maximum absorption wavelength for compounds in solutions diluted 200 times with methanol. The data obtained were recalculated according to the law of dilutions and Beer’s law to obtain the initial concentrations of the compounds solubilized in 15% DMSO in water."}, "[8]": {"experiment": "Light-induced cytotoxicity (photocytotoxicity) in Vero cells", "type": "cell-based, African Green Monkey", "settings": "African green monkey, Vero cells; blue light 465–480 nm, 10 min, then 48 h; read-out: cell viability of Vero cells after irradiation", "experimental": "(§1) Subsequently, cells treated with the compounds were irradiated with LEDs (465–480 nm, 30 mW/cm^2) for 10 min at RT. As a negative control, compound-treated cells were incubated for 10 min in daylight at RT. Then, both the irradiated and non-irradiated cell monolayers were incubated at 37 °C in the dark for 48 h. Subsequently, the cell culture medium was aspirated and the cytotoxicity of the tested perylene derivatives was determined based on cell viability using Cell Counting Kit-8 (Dojindo Molecular Technologies, Munich, Germany) according to the manufacturer’s instructions. Note: all manipulation with samples was performed in daylight (Figure 7K)."}, "[9]": {"test_system": "Vero cells", "experiment": "Light-induced cytotoxicity (photocytotoxicity) in Vero cells", "type": "cell-based, African Green Monkey", "settings": "blue light 10 min vs daylight, 0–10 µM, 48 h", "experimental": "as §1"}, "[10]": {"settings": "10 min in daylight, read-out: EC50 (µM) in Daylight"}, "[11]": {"settings": "blue light 465–480 nm, 30 mW/cm^2, 10 min, read-out: EC50 (µM) under Blue Light"}},
  "note": "“Also recorded” adds a separate entry of the source. Like-named read-outs stand apart in the source and are kept apart here.",
  "data": [
    {"molecule": "CCCCc1ccc2c3cccc4c(C#Cc5cn([C@H]6C[C@H](O)[C@@H](CO)O6)c(=O)[nH]c5=O)ccc(c5cccc1c52)c43", "note": "[Compound 11a, 5-[9(10)-Butylperylen-3-ylethynyl]-deoxy-uridine]", "values": [
      {"measurement": "viral replication and spread in HSV-1-infected Vero cell culture", "setting": "[1]", "result": "did not suppress viral replication and spread"},
      {"measurement": "anti-HSV-1 activity in Vero cells", "setting": "[1]", "result": "completely inhibited viral replication; also recorded: higher antiviral potency compared to acyclovir"},
      {"measurement": "EC50", "setting": "[2]", "result": "0.5 ± 0.1", "unit": "µM"},
      {"measurement": "1O2 Quantum Yield", "setting": "[3]", "result": "23.6 ± 1.4", "unit": "%"},
      {"measurement": "Decrease in EC50 (Fold)", "setting": "[4]", "result": 18.6, "unit": "fold"},
      {"measurement": "EC50", "setting": "[4]; [10]", "result": 1.83, "unit": "µM"},
      {"measurement": "EC50", "setting": "[4]; [11]", "result": 0.098, "unit": "µM"},
      {"measurement": "plaque formation after pretreatment of HSV-1", "setting": "[5]", "result": "completely inhibited the ability of the virus to form plaques"},
      {"measurement": "plaque numbers in fusion assay", "setting": "[6]; 0.08 µM", "result": "plaque numbers were similar to controls"},
      {"measurement": "plaque size in fusion assay", "setting": "[6]", "result": "significantly smaller plaques"},
      {"measurement": "plaque numbers in fusion assay", "setting": "[6]; most pronounced at 2 and 10 µM", "result": "reduction in plaque numbers"},
      {"measurement": "solubility in 15% DMSO in water", "setting": "[7]", "result": "relatively high solubility"},
      {"measurement": "solubility", "setting": "[7]", "result": 0.51, "unit": "µM"}
    ]},
    {"molecule": "CCCCc1ccc2c3cccc4c(C#Cc5cn([C@@H]6O[C@H](CO)[C@@H](O)[C@@H]6O)c(=O)[nH]c5=O)ccc(c5cccc1c52)c43", "note": "[Compound 9a, 5-[9(10)-Butylperylen-3-ylethynyl]-arabino-uridine]", "values": [
      {"measurement": "viral replication and spread in HSV-1-infected Vero cell culture", "setting": "[1]", "result": "did not suppress viral replication and spread"},
      {"measurement": "anti-HSV-1 activity in Vero cells", "setting": "[1]", "result": "completely inhibited viral replication; also recorded: higher antiviral potency compared to acyclovir"},
      {"measurement": "EC50", "setting": "[2]", "result": "2 ± 1.8", "unit": "µM"},
      {"measurement": "1O2 Quantum Yield", "setting": "[3]", "result": "31.9 ± 8.5", "unit": "%"},
      {"measurement": "Decrease in EC50 (Fold)", "setting": "[4]", "result": 21.9, "unit": "fold"},
      {"measurement": "EC50", "setting": "[4]; [10]", "result": 2.23, "unit": "µM"},
      {"measurement": "EC50", "setting": "[4]; [11]", "result": 0.102, "unit": "µM"},
      {"measurement": "viability at 48 h", "setting": "[8]", "result": "115 to 128", "unit": "%"},
      {"measurement": "photocytotoxicity to Vero cells", "setting": "[9]", "result": "did not increase the cytotoxicity"},
      {"measurement": "plaque formation after pretreatment of HSV-1", "setting": "[5]", "result": "completely inhibited the ability of the virus to form plaques"},
      {"measurement": "plaque numbers in fusion assay", "setting": "[6]; 0.08 µM", "result": "plaque numbers were similar to controls"},
      {"measurement": "plaque size in fusion assay", "setting": "[6]", "result": "significantly smaller plaques"},
      {"measurement": "plaque numbers in fusion assay", "setting": "[6]; most pronounced at 2 and 10 µM", "result": "reduction in plaque numbers"},
      {"measurement": "solubility in 15% DMSO in water", "setting": "[7]", "result": "relatively high solubility"},
      {"measurement": "solubility", "setting": "[7]", "result": 0.6, "unit": "µM"}
    ]}
  ]
}
